The source of these data is US9796674B2, “Benzyl urea derivatives for activating TGF-beta signaling” (THE BOARD OF TRUSTEES OF THE LELAND STANFORD JUNIOR …, priority 2013, dated 2017).

Entries after “also recorded” stand apart in the source; their conditions may differ.

The test system of data set [1] is TGF-β signaling. Description: F11 SBE-SEAP reporter cell assay. As to conditions: F11 SBE-SEAP reporter cell line. The class given is cell-based, mouse. An excerpt: In another aspect, methods are provided for treating or preventing the progression of a disease or condition characterized by a reduction in TGF-β signaling. One category of such diseases or conditions is neurodegenerative disorders. One example is Alzheimer's disease (AD), or another disease characterized by the deposition of amyloid plaques and overall accumulation of Aβ in the brain. Experiments performed in support of the present compositions and methods are described, below. • TGF-β reporter gene and cells for screening compounds: An in vitro screening method was developed to identify small-molecule chemical compounds with TGF-β1-like bioactivity. The method utilized a fusion gene consisting of the luciferase or secreted alkaline phosphatase (SEAP) reporter gene under control of the TGF-β responsive Smad-binding element (SBE) minimal promoter sequence, as shown in FIGS. 1A and 1B. To screen for compounds that mimic TGF-β bioactivity, reporter cell lines were prepared by stably-integrating SBE-SEAP into C6 astrocytoma cells, a primary astrocyte line derived from tgfb1^−/− mice, a mouse embryonic fibroblast cell line derived from tgfb1^−/− mice (MFB-F11), and NG108-15 neuroblastoma cells. Such cell lines remained stable for at least 20 passages. Use of a tgfb1^−/− genetic background avoids interference by the […] tgfb1 gene. • Initial compound screening: A library with 5,000 chemically diverse small molecules (average Mr 200 Da) was obtained from Comgenex LLC (South San Francisco, Calif.). […]
The compounds were all tested in the F11 cell activity assay (fibroblast stably transfected with SBE-SEAP construct). […] Compounds with promising activity were evaluated using tier 1 assays such as permeability assays to measure blood-brain barrier transport, metabolic stability assays, and solubility assays. […]

The test system of data set [2] is female FVB mice. Description: Dose escalation and 14-day MTD study in female FVB mice. Type of data set: in vivo. As to conditions: for hematology parameters / survival: repeat dose study; for clinical chemistry: all treatment groups; for single-dose level at which all animals survived to 48 h: female, FVB, mouse, in vivo; for survival: high dose 75 mg/kg. On the procedure: In Vivo Range Finding Toxicity Studies in Mice and Rats: Dose escalation and 14-day MTD study of SRI-011381 and SRI-011382 in female FVB mice: The objectives of this study were to determine the maximum tolerated dose (MTD) and a no observable adverse effect level (NOAEL) in female FVB mice following a daily oral dose administration for 14 consecutive days. An initial dose escalation was performed with intraperitoneal (ip), oral (po), and intravenous (iv) dose routes for a single-dose MTD of SRI-011381 and SRI-011382.
Subsequently, three dose levels (10, 30, and 75 mg/kg) and a vehicle control group were used in the 14-day oral dose administration to determine the MTD and NOAEL based on changes in bodyweight, clinical observations, serum chemistry, hematology and gross organ physiology in 5 female mice per treatment group.
The objectives of this study were to determine maximum tolerated dose (MTD) and a no observable adverse effect level (NOAEL) in female FVB mice following a daily oral dose administration for 14 consecutive days. After a dose escalation single dose study with doses up to 400 mg/kg, three dose levels were selected for the repeat dose study, 10, 30 and 75 mg/kg, administered […]. The MTD is the maximum dose administered that results in less than 10% body weight loss compared to controls and no other dose limiting adverse effects (e.g. clinical pathology).

Data set [3] relates to primary rat hepatocytes. The data set is described as follows: Cytotoxicity in primary rat hepatocytes. The class given is cell-based. As to conditions: 20 h. On the procedure:
In Vitro Cytotoxicity: The cytotoxicity of SRI-011381 was determined in primary rat hepatocytes and in VERO cells.
Rat hepatocytes were isolated by collagenase perfusion and allowed to form a monolayer overnight. The test compounds were added to the cells in 5 concentrations up to 250 μM. Cells were incubated with the test article for 20 h and then toxicity determined by the MTT cytotoxicity screen. Toxicity was evaluated against the vehicle control (DMSO) and a positive control, amitriptylin, was included with each experiment.

Turning to `O=C(NC1CCCCC1)N(Cc1ccccc1)CC1CCNCC1` [SRI-011381, 1-Benzyl-3-cyclohexyl-1-(piperidin-4-ylmethyl)urea], the figures for the “activity in the reporter cell assay” value in data set [1] and in data set [1] (listed as 381) were “showed activity” and “activates TGF-β signaling in reporter cell line”, respectively. For the same compound, the figures for the hematology parameters result in data set [2] (10 mg/kg) and in data set [2] (30 mg/kg) were “no significant differences relative to controls” and “minor changes in WBCs only”, respectively. Moreover, the “absolute WBCs” value in data set [2] (30 mg/kg, 14 days) was “significantly decreased”. For the same compound, the “hematology parameters (RBCs, hematocrit, hemoglobin)” value in data set [2] (75 mg/kg (high dose), 14 days) is “reductions in red blood cells (RBCs), hematocrit and hemoglobin; also recorded: RBCs, hematocrit and hemoglobin were all significantly reduced; also recorded: significantly reduced hematocrit, hemoglobin, RBCs, and WBCs”. Also, the clinical signs entry in data set [2] (75 mg/kg, 14 days) is “hunched posture, hypoactivity and ruffled fur”. Moreover, in data set [2] (75 mg/kg, 14 days), the “neutrophils (% and absolute)” value is “increased”. For the same compound, in data set [2] (75 mg/kg, 14 days), the reticulocytes result is given as “significantly elevated”. Besides, the “body weight or body weight change” value in data set [2] (10, 30, 75 mg/kg, 14 days, relative to controls) is “no significant differences in body weight or body weight change”. In addition, the “lymphocytes (% and absolute)” value in data set [2] (30 and 75 mg/kg, 14 days) is “decreased”. Further, the clinical chemistry result in data set [2] (14 days) is “no significant changes in clinical chemistry”. Also, the “single-dose level at which all animals survived to 48 h” value is recorded as “up to 100 mg/kg” in data set [2] (ip), at most 15 mg/kg in data set [2] (iv) and at most 200 mg/kg in data set [2] (po). Besides, the survival entry in data set [2] is given as “survived to the scheduled sacrifice on Day 15”. Besides, the clinical observations result in data set [2] (two lower dose groups (10, 30 mg/kg), 14 days) is “appeared normal”. Besides, in data set [3] (rat hepatocytes, MTT), the LD50 entry was “greater than 250 μM”.
Consider `O=C(NC1CCCCC1)N(C/C=C/c1ccc(F)cc1)CC1CCNCC1` [SRI-011382], for which the “activity in the reporter cell assay” value in data set [1] is given as “superior activity”. Also, in data set [2] (30 mg/kg), the hematology parameters entry was “reduced hematocrit, hemoglobin, RBCs, and WBCs”. Moreover, in data set [2] (75 mg/kg, 14 days), the clinical signs entry is “hunched posture, hypoactivity and ruffled fur”. The clinical chemistry result in data set [2] (14 days) was “no significant changes”. Further, in data set [2], the survival entry is “lethality to the entire treatment group”. In data set [3] (rat, 50 μM), the “cytotoxicity in rat hepatocytes” value is listed as “cytotoxic at 50 μM”.
